The text below walks through data of patent US7232814B2 (Centre National de la Recherche Scientifique (C.N.R.S.), priority 2000, dated 2007).

Usually melting point stands for the temperature of the solid-liquid transition.

Turning to `COc1cc2c(cc1OC)-c1[nH]c3ccc([N+](=O)[O-])cc3c1CC(=O)N2` [98 N 356, 2,3-Dimethoxy-7,12-dihydro-9-nitro-indolo[3,2-d][1]benzazepin-6(5H)-one(2,3-dimethoxy-9-nitropaullone)], the melting point was > 330 °C.

Consider `O=C1Cc2c([nH]c3ccc([N+](=O)[O-])cc23)-c2cc(Br)ccc2N1` [98 N 354, 2-Bromo-7,12-dihydro-9-nitro-indolo[3,2-d][1]benzazepin-6(5H)-one(2-bromo-9-nitropaullone)], for which the melting point is > 330 °C.

With `COc1cc2c(cc1OC)-c1[nH]c3ccc(C#N)cc3c1CC(=O)N2` [98 N 217, 2,3-Dimethoxy-6-oxo-5,6,7,12-tetrahydro-indolo [3,2-d][1]benzazepin-9-carbonitrile(9-cyano-2,3-dimethoxypaullone)], the melting point is > 330 °C.
